Data on 15 compounds can be found in patent US4548938A, “5-H-1,3,4-thiadiazolo[3,2-a]pyrimidin-5-one compounds” (Janssen Pharmaceutica N.V., priority 1985, dated 1985).

Assay [1] deals with norepinephrine-induced mortality. Kind of assay: norepinephrine (NOR) test in rats, part of the combined APO-TRY-NOR test. In kind it is in vivo, male Wistar rats. To be noted: Rattus norvegicus, sc, 2 h, norepinephrine 1.25 mg/kg i.v. at 120 min. How it is done:
THE COMBINED APOMORPHINE (APO)-, TRYPTAMINE (TRY)- AND NOREPINEPHRINE (NOR) TEST IN RATS
The experimental animals used in this test were adult male Wistar rats (weight 240±10 g). After an overnight fast, the animals were treated subcutaneously (1 ml/100 g) with an aqueous solution of the compound under investigation (time=zero) and put in isolated observation cages. […] At the end of this 1 hour period (time=90 minutes) the same animals were injected intravenously with 40 mg/kg of tryptamine (TRY) and the presence of the typical tryptamine-induced bilateral tonic seizures was noted. Two hours after pretreatment (time=120 minutes) finally, the same animals were challenged with 1.25 mg/kg intravenously of norepinephrine (NOR) and possible mortality was looked for up to 60 minutes later.
The table 1 gives the ED50 -values of a number of the compounds under consideration. As used herein, the ED50 -value represents the dose which protects 50% of the animals from apomorphine-, tryptamine- or norepinephrine-induced phenomena.

Assay [2] relates to serotonin-induced contraction of rat caudal artery. Kind of assay: antagonistic activity on the effect of serotonin on the caudal artery of the rat. As to conditions: serotonin 40 ng/ml; minimal concentration reducing contraction amplitude to at least 50% of normal; 5 min. How it is done:
ANTAGONISTIC ACTIVITY ON THE EFFECT OF SEROTONIN ON THE CAUDAL ARTERY OF THE RAT
Caudal arteries from fasted male rats (210-235 g) were used in the test. Two helical strips having a length of 5-6 cm and a width of 2 mm. were obtained from each artery and mounted vertically in a 100 ml organ bath containing an oxygenated Krebs-Henseleit solution. Submaximal contractions of the arterial strips were produced by adding single doses of serotonin (40 ng/ml) to the organ bath for 2 minutes with each time an interval of 10 minutes. The amplitude of the contraction was measured before and 5 minutes after adding the drug. After washing out, the agonist was added again three times in order to see whether the contraction was restored and normalized.

Assay [3] deals with apomorphine-induced emesis. Kind of assay: apomorphine test in dogs (APO-dog). In kind it is in vivo. To be noted: Canis lupus familiaris, sc; beagle dogs; apomorphine 0.31 mg/kg s.c. 1 hour after compound; protection from emesis.
Assay [4] relates to compound 48/80-induced gastric lesions. Kind of assay: gastric lesion test: lesions induced by compound 48/80. In kind it is in vivo. As to conditions: Rattus norvegicus, read-out: gastric lesion test ED50.
For assay [5], the system named is compound 48/80-induced lethality. Kind of assay: protection of rats from compound 48/80-induced lethality. In kind it is in vivo, male Wistar rats. As to conditions: Rattus norvegicus, sc, 4 h, s.c., compound 48/80 0.5 mg/kg i.v. 1 hour after treatment, 50% protected against lethality, read-out: 48/80-test ED50. The source says: PROTECTION OF RATS FROM COMPOUND 48/80-INDUCED LETHALITY
Compound 48/80, a mixture of oligomers obtained by condensation of 4-methoxy-N-methyl-phenethylamine and formaldehyde has been described as a potent histamine releasing agent (Int. Arch. Allergy, 13, 336 (1958)). The protection from compound 48/80-induced lethal circulatory collapse appears to be a simple way of evaluating quantitatively the antihistaminic activity of test-compounds. Male rats of an inbred Wistar strain, weighing 240-260 g were used in the experiment. After overnight starvation the rats were transferred to conditioned laboratories (temp.=21±1° C., relative humidity=65±5%). The rats were treated subcutaneously or orally with a test compound or with the solvent (NaCl solution, 0.9%). One hour after treatment there was injected intravenously compound 48/80, freshly dissolved in water, at a dose of 0.5 mg/kg (0.2 ml/100 g of body weight). In control experiments, wherein 250 solvent-treated animals were injected with the standard dose of compound 48/80 not more than 2.8% of the animals survived after 4 hours, is therefore considered to be a safe criterion of a protective effect of drug administration.
In this connection the ED50 -values are the minimal doses of the concerned compounds, administered in the subcutaneous way, whereby 50% of the rats are protected against compound 48/80-induced lethality.

The test system of assay [6] is apomorphine-induced phenomena: agitation and stereotypic chewing. Kind of assay: apomorphine (APO) test in rats, part of the combined APO-TRY-NOR test. As to conditions: Rattus norvegicus, sc, 0.5 h, read-out: ED50 (APO)-rat. In kind it is in vivo, male Wistar rats.
Assay [7] concerns tryptamine-induced bilateral tonic seizures. Kind of assay: tryptamine (TRY) test in rats, part of the combined APO-TRY-NOR test. In kind it is in vivo, male Wistar rats. To be noted: Rattus norvegicus, sc, 1.5 h, tryptamine 40 mg/kg i.v. at 90 min.
Where [8] appears, read: rats, compound 48/80, distension of the stomach completely absent in 50% of rats.
The mark [9] stands for this setting: s.c., rats, apomorphine 1.25 mg/kg i.v. 30 min after compound.

Structures are written as SMILES. Structures can show the parent of a compound that is named as a salt. Where two headings read alike, the source gives them in different places.

Regarding `Cc1nc2sccn2c(=O)c1CCN1CCC(C)(C(=O)c2ccc(F)cc2)CC1` [compound 9, monohydrochloride], the ED50 is 1.25 mg/kg in assay [1]; 0.25 mg/kg in assay [3]; 0.005 mg/kg in assay [4] (setting [8]); 0.16 mg/kg in assay [5]; 0.63 mg/kg in assay [6]; 0.16 mg/kg in assay [7]. In addition, the “caudal artery rat ED50” value in assay [2] is 0.32 ng/mL.

For `Cc1nc2n(c(=O)c1CCN1CC[C@H](c3c[nH]c4ccccc34)[C@H](C)C1)CCS2` (relative stereo) [compound 23, cis-2,3-dihydro-6-[2-[4-(1H-indol-3-yl)-3-methyl-1-piperidinyl]ethyl]-7-methyl-5H-thiazolo[3,2-a]pyrimidin-5-one], the ED50 in assay [4] (setting [8]) and in assay [5] was 2.5 mg/kg each time.

In the case of `Cc1nc2sc3c(n2c(=O)c1CCN1CCC(c2c[nH]c4ccccc24)CC1)CCC3` [compound 17, 7,8-dihydro-3-[2-[4-(1H-indol-3-yl)-1-piperidinyl]ethyl]-2-methyl-4H,6H-cyclopenta[4,5]thiazolo[3,2-a]-pyrimidin-4-one], the ED50 in assay [1] is 0.31 mg/kg; in assay [3], 0.03 mg/kg; in assay [4] (setting [8]), 0.31 mg/kg; in assay [5], 0.08 mg/kg; in assay [6] (setting [9]) it was 0.63 mg/kg; in assay [7], 0.16 mg/kg. Besides, the “caudal artery rat ED50” value in assay [2] was found to be 0.31 ng/mL.

`Cc1nc2sccn2c(=O)c1CCN1CCC(C(=O)c2ccc(F)cc2)(c2ccccc2)CC1` [compound 10, 6-[2-[4-(4-fuorobenzoyl)-4-phenyl-1-piperidinyl]ethyl]-7-methyl-5H-thiazolo-[3,2-a]pyrimidin-5-one]: the ED50 in assay [4] (setting [8]) was 2.5 mg/kg.

On to `Cc1nn2c(=O)c(CCN3CCC(c4c[nH]c5ccccc45)CC3)c(C)nc2s1` [compound 14, 6-[2-[4-(1H-indol-3-yl)-1-piperidinyl]ethyl]-2,7-dimethyl-5H-1,3,4-thiadiazolo[3,2-a]pyrimidin-5-one], for which the ED50 in assay [1] was found to be 0.63 mg/kg; in assay [4] (setting [8]), 0.04 mg/kg; in assay [5] it was 0.04 mg/kg; in assay [6] (setting [9]), 5 mg/kg; in assay [7], 1.25 mg/kg. The “caudal artery rat ED50” value in assay [2] came to 0.56 ng/mL.

As for `Cc1nc2sccn2c(=O)c1CCN1CCC(c2c[nH]c3ccc(F)cc23)CC1` [compound 22, 6-[2-[4-(5-fluoro-1H-indol-3-yl)-1-piperidinyl]ethyl]-7-methyl-5H-thiazolo[3,2-a]pyrimidin-5-one], the ED50 was 1.25 mg/kg in assay [1]; 0.12 mg/kg in assay [3]; 0.08 mg/kg in assay [4] (setting [8]); 1.25 mg/kg in assay [5]; 1.25 mg/kg in assay [6]; 0.31 mg/kg in assay [7]. Also, the “caudal artery rat ED50” value in assay [2] stood at 1.25 ng/mL.

For `Cc1nc2sc(C)c(C)n2c(=O)c1CCN1CCC(c2c[nH]c3ccccc23)CC1` [compound 25, 6-[2-[4-(1H-indol-3-yl)-1-piperidinyl]ethyl]-2,3,7-trimethyl-5H-thiazolo[3,2-a]pyrimidin-5-one], the ED50 in assay [1] was found to be 0.63 mg/kg; in assay [3], 0.015 mg/kg; in assay [4] (setting [8]), 0.16 mg/kg; in assay [5], 0.04 mg/kg; in assay [6] (setting [9]) it was 0.31 mg/kg; in assay [7], 0.16 mg/kg. Moreover, the “caudal artery rat ED50” value in assay [2] was 0.32 ng/mL.

As for `Cc1nc2sc3c(n2c(=O)c1CCN1CCC(C(=O)c2ccc(F)cc2)CC1)CCC3` [compound 8, 3-[2-[4-(4-fluorobenzoyl)-1-piperidinyl]ethyl]7,8-dihydro-2-methyl-4H,6H-cyclopenta[4,5]thiazolo[3,2-a]pyrimidin-4-one], the ED50 in assay [1] was determined as 0.63 mg/kg; in assay [3], 0.25 mg/kg; in assay [4], 0.04 mg/kg; in assay [5], 0.31 mg/kg; in assay [6], 1.25 mg/kg; in assay [7] it was 0.31 mg/kg. Also, the “caudal artery rat ED50” value in assay [2] was determined as 0.32 ng/mL.

`Cc1nc2sc3ccccc3n2c(=O)c1CCN1CCC(c2c[nH]c3ccccc23)CC1` [compound 13, 3-[2-[4-(1H-indol-3-yl)-1-piperidinyl]ethyl]-2-methyl-4H-pyrimido[2,1-b]benzothiazol-4-one]: the ED50 in assay [1] came out at 0.16 mg/kg; in assay [4] (setting [8]), 0.04 mg/kg; in assay [5], 0.63 mg/kg; in assay [6] it was 1.25 mg/kg; in assay [7] it was 0.31 mg/kg. For the same compound, in assay [2], the “caudal artery rat ED50” value came out at 0.32 ng/mL.

For `Cc1nc2sccn2c(=O)c1CCN1CCC(c2c[nH]c3ccc(Cl)cc23)CC1` [compound 21, 6-[2-[4-(5-chloro-1H-indol-3-yl)-1-piperidinyl]ethyl]-7-methyl-5H-thiazolo[3,2-a]pyrimidin-5-one], the ED50 in assay [1] was 1.25 mg/kg; in assay [4] it was 1.25 mg/kg; in assay [5], 2.5 mg/kg; in assay [6], 0.63 mg/kg.

As to `Cc1nc2n(c(=O)c1CCN1CCC(C(=O)c3ccc(F)cc3)CC1)CCCS2` [compound 2, 7-[2-[4-(4-fluorobenzoyl)-1-piperidinyl]ethyl]3,4-dihydro-8-methyl-2H,6H-pyrimido[2,1-b][1,3]thiazin-6-one], the ED50 in assay [1] turned out to be 1.25 mg/kg; in assay [3] it was 0.03 mg/kg; in assay [4] (setting [8]), 0.01 mg/kg; in assay [5], 0.16 mg/kg; in assay [6] it was 0.31 mg/kg; in assay [7], 0.63 mg/kg. Besides, in assay [2], the “caudal artery rat ED50” value amounted to 0.32 ng/mL.

Turning to `Cc1nc2sc(C)c(C)n2c(=O)c1CCN1CCC(C(=O)c2ccc(F)cc2)CC1` [compound 24, 6-[2-[4-(4-fluorobenzoyl)-1-piperidinyl]ethyl]-2,3,7-trimethyl-5H-thiazolo[3,2-a]pyrimidin-5-one], the ED50 in assay [1] turned out to be 0.63 mg/kg; in assay [3], 0.12 mg/kg; in assay [4] (setting [8]) it was 0.01 mg/kg; in assay [5], 0.08 mg/kg; in assay [6] (setting [9]) it was 0.63 mg/kg; in assay [7] it was 0.04 mg/kg.

For `Cc1nc2scc(C)n2c(=O)c1CCN1CCC(c2c[nH]c3ccc(F)cc23)CC1` [compound 20, 6-[2-[4-(5-fluoro-1H-indol-3-yl)-1-piperidinyl]ethyl]-3,7-dimethyl-5H-thiazolo[3,2-a]pyrimidin-5-one], the “caudal artery rat ED50” value in assay [2] came out at 0.31 ng/mL. For the same compound, the ED50 was determined as 0.12 mg/kg in assay [3]; 0.31 mg/kg in assay [4] (setting [8]); 0.63 mg/kg in assay [5]; 1.25 mg/kg in assay [6]; 0.63 mg/kg in assay [7].

Take `Cc1nc2n(c(=O)c1CCN1CCC(c3c[nH]c4ccccc34)CC1)CCS2` [compound 15, 2,3-dihydro-6-[2-[4-(1H-indol-3-yl)-1-piperidinyl]-ethyl]-7-methyl-5H-thiazolo[3,2-a]pyrimidin-5-one]: the ED50 in assay [1] came to 1.25 mg/kg; in assay [3], 0.008 mg/kg; in assay [4] (setting [8]), 0.04 mg/kg; in assay [5], 0.02 mg/kg; in assay [6], 1.25 mg/kg. Besides, the “caudal artery rat ED50” value in assay [2] amounted to 0.31 ng/mL.

In the case of `Cc1nc2scc(C)n2c(=O)c1CCN1CCC(C(=O)c2ccc(F)cc2)CC1` [compound 4, 6-[2-[4-(4-fluorobenzoyl)-1-piperidinyl]ethyl]-3,7-dimethyl-5H-thiazolo[3,2-a]pyrimidin-5-one], the ED50 was determined as 1.25 mg/kg in assay [1]; 0.01 mg/kg in assay [4] (setting [8]); 0.31 mg/kg in assay [5]; 0.16 mg/kg in assay [6]; 0.005 mg/kg in assay [7]. In addition, the “caudal artery rat ED50” value in assay [2] is 0.32 ng/mL.
